The values that follow come from patent US20240261243A1, “NITRIC OXIDE DONORS, COMPOSITIONS, AND METHODS OF USE” (priority 2020, published 2024).

Values joined by “and” are separate entries in the source; they are usually repeats but may differ in a detail not shown here. Equal values may be shown once. Some results are limits rather than exact numbers.

For series [1] the following is noted: N-methyl amine; cited from earlier work.
Another series deals with P. aeruginosa biofilms. The series can be described thus: Biofilm eradication (MBEC) on peg lid.
Another series has as its system P. aeruginosa (PAK). The series can be described thus: Combination MIC/MBC assay, BIOC76 with fixed gallium citrate. The format is cell-based, Pseudomonas aeruginosa. Conditions: PAK; alone. The method, then: Combination MIC/MBC assays are useful when you want to look at only a few concentrations of one compound (Gallium citrate) combined with many concentrations of the second compound (BIOC76).
This method also allows us to see the change in both the MIC and MBC of a drug when in combination with another drug. Checkerboard assays only allow us to see changes in the MIC's.
Test articles are added to a 96-well plate so that when a 2× bacterial culture (prepared to 10^6 CFU/ml) is added, the final concentration in all wells was 1×.
All test articles are prepared at 4×→diluted 1:1 when other TA is added (2×) and diluted 1:1 again to 1× when bacteria are added.
TA #1 (Gallium citrate) is prepared and added to entire rows of a plate at a single concentration.
TA #2 (BIOC76) in then prepared and serially diluted in TA #1, so there are 2-fold dilutions of TA #2 combined with a single concentration of TA #1.
Plates were incubated at 37° C. for 18-24 h.
The ΔMIC/IBC is used to show the change in the MIC/IBC of BIOC76 when in combination with Gallium citrate (compared to when BIOC76 is used alone).
ΔMIC/MBC is the fold-decrease in BIOC76 concentration as a result of the combination.
We concluded BIOC76 and gallium citrate maintain synergistic activity so long as the gallium concentration is at least about 0.005 to about 0.02 mg/ml. In this experimental, we set up MIC/MBC assay and serially diluted BIOC76 in rows with fixed concentrations of gallium citrate. […] The results are shown in FIG. 6, and in the following tables: […]

A further series has as its system P. aeruginosa strains. The series is described as follows: MIC/MBC of BIOC76 and gallium citrate alone against 21 strains. In kind it is cell-based, Pseudomonas aeruginosa. Conditions: for MBC Rep 1 / MIC Rep 1: alone. An excerpt:
Determined the MIC of each test article individually against the strains being tested using the CLSI MIC/MBC method.
In this study, we established the MIC/MiBC's of BIOC76 and gallium citrate alone against each of 21 P. aeruginosa strains. […] The activity of both compounds is also strain-dependent. The results are as follows (the species for each strain is Pseudomonas aeruginosa: […]

Series [2] can be described thus: NO release half-life of diazeniumdiolate NO donors in aqueous media at pH 7.4. The format is physicochemical.
Description: The rate of nitric oxide release from diazeniumdiolates can be controlled using a variety of structural features.
The nature of series [3]: NO storage and release measurement (chemiluminescence nitric oxide analyzer). The format is physicochemical. The procedure:
N-diazeniumdiolates NO scaffolds are pH-triggered NO-release donors. Reacting with proton in the physiological condition (e.g., 37° C., pH 7.4), 1 mole of N-diazeniumdiolate regenerates 1 mole of the parent secondary amine compounds and two moles of NO radicals. The real-time detection of NO was performed by using a chemiluminescence-based nitric oxide analyzer (NOA). The total NO storage and dissociation kinetics of water-soluble NO Donors were measured in physiological condition (pH 7.40, 37° C.). The resulting NO-release parameters (e.g., total NO storage, half-life of NO release, maximum flux, and conversion efficiency) were evaluated for suitability as a pharmaceutical product.
Transfer the solution into the high-pressure vessel and purge the headspace with nitrogen. Mix the solution and set nitric oxide pressure to 25 bar (temp 20° C.). Allow the reaction to run for minimum of 3 days. Stop the reaction by venting the NO. Precipitate the reaction product in acetone (10:1 acetone:reaction mixture). Filter the precipitate and vacuum dry.
We sought to determine whether an NO donor and gallium nitrate have antimicrobial synergy against a lab strain of P. aeruginosa (PAK). The Checkerboard assay (described herein) was used with a hepta-substituted cyclodextrin-based NO donor (hereinafter referred to as BIOC76) having approximately ˜4.7 μmol NO/mg dry powder.

Series [4] addresses angiotensin-converting enzyme 2 (ACE2) (Homo sapiens, UniProt Q9BYF1). Conditions: ACE2 inhibitor from foodstuffs; cited from earlier work.
Where [5] appears, read: PAK (N0049), 3-log reduction in biofilm.

Sequence of angiotensin-converting enzyme 2 (ACE2) (Q9BYF1 18-805): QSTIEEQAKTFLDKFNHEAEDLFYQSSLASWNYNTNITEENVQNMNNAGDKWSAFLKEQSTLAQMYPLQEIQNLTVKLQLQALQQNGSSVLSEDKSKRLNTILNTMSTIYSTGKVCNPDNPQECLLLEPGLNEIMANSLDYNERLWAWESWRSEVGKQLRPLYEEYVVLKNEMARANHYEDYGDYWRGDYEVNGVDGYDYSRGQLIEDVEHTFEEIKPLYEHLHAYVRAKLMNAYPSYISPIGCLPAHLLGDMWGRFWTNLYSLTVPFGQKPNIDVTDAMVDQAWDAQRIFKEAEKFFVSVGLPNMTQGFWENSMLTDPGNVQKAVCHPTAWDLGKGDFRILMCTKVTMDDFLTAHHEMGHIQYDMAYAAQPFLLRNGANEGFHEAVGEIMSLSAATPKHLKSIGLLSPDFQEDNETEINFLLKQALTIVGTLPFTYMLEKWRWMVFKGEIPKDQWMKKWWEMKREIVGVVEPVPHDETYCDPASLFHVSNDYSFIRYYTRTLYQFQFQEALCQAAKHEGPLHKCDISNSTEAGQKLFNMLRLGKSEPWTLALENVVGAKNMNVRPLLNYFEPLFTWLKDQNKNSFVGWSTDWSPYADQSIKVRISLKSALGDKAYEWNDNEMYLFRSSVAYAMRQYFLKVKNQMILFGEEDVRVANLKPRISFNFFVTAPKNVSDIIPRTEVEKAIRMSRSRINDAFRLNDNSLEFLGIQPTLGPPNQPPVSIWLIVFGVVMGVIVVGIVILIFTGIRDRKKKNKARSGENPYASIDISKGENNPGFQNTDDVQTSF
Protocol for P. aeruginosa strain PAK: All test articles are prepared at 4×→diluted 1:1 when other TA is added (2×), and diluted 1:1 again to 1× when bacteria are added
Experimental Design: The MIC of BIOC76 and Gallium nitrate individually, then set up a checkerboard assay testing 49 combinations of BIOC76 and Gallium nitrate concentrations against 10^6 CFU/ml P. aeruginosa strain PAK. Plates were incubated at 37° C. for 18-24 h, and growth was assessed visually.

With `C[C@@H]1CCC[C@H](C)N1C` [N-methyl-cis-2,6-dimethylpiperidine], the pKa in series [1] was 9.35.
On to `NC[C@H]1O[C@H](O[C@H]2[C@H](O)[C@@H](O[C@H]3O[C@H](CO)[C@@H](O)[C@H](N)[C@H]3O)[C@H](N)C[C@@H]2N)[C@H](N)C[C@@H]1O` [Tobra, Tobramycin], for which the “MBEC of Tobra” value in the series with P. aeruginosa biofilms (setting [5]) was 8 µg/mL and 4 µg/mL.
Turning to `O=C([O-])CC(O)(CC(=O)[O-])C(=O)[O-].[Ga+3]` [Gallium citrate, gallium citrate, reference compound], the “MIC GaCi” value in the series with P. aeruginosa (PAK) amounted to 65 µg/mL. Further, the “killing of P. aeruginosa strains (conclusion)” value in the series on P. aeruginosa strains (21 P. aeruginosa strains) is “does not kill any strain of P. aeruginosa”. Besides, the “mode of activity alone (conclusion)” value in the series on P. aeruginosa strains (21 P. aeruginosa strains) is reported as “largely bacteriostatic”. The “MBC Rep 1” value in the series with P. aeruginosa strains (strain N0047 (AR-BANK #103)), in the series on P. aeruginosa strains (strain N0048 (ATCC 19143)), with P. aeruginosa strains (strain N0049 (PAK)), in the series with P. aeruginosa strains (strain N0050 (AR-BANK #0095)), in the series on P. aeruginosa strains (strain N0051 (AU32077)) and in the series with P. aeruginosa strains (strain N0053 (AU30524)) was >2000 µg/mL in each case. The “MBC Rep 1” value with P. aeruginosa strains (strain N0054 (AU26773)), in the series with P. aeruginosa strains (strain N0055 (AU22725)), in the series with P. aeruginosa strains (strain N0056 (AU22505)), in the series with P. aeruginosa strains (strain N0057 (AU35400)), with P. aeruginosa strains (strain N0058 (AU32543)) and in the series with P. aeruginosa strains (strain N0059 (AR-BANK #0054)) was >2000 µg/mL each time. The “MBC Rep 1” value in the series with P. aeruginosa strains (strain N0069 (AR-BANK #0090)), in the series on P. aeruginosa strains (strain N0070 (AR-BANK #0092)), with P. aeruginosa strains (strain N0071 (AR-BANK #0100)), in the series with P. aeruginosa strains (strain N0072 (AR-BANK #0105)), in the series with P. aeruginosa strains (strain N0079 (AR-BANK #0108)) and in the series on P. aeruginosa strains (strain N0080 (AR-BANK #0110)) was >2000 µg/mL throughout. Further, the “MBC Rep 1” value with P. aeruginosa strains (strain N0081 (AR-BANK #0111)) and with P. aeruginosa strains (strain N0099 (ATCC 29260)) was >2000 µg/mL each time. Further, the “MIC Rep 1” value with P. aeruginosa strains (strain N0047 (AR-BANK #103)) is 250 µg/mL; in the series on P. aeruginosa strains (strain N0048 (ATCC 19143)), 2000 µg/mL; in the series on P. aeruginosa strains (strain N0049 (PAK)) it was 65 µg/mL; in the series on P. aeruginosa strains (strain N0050 (AR-BANK #0095)) it was 250 µg/mL; with P. aeruginosa strains (strain N0051 (AU32077)) it was 250 µg/mL; in the series on P. aeruginosa strains (strain N0052 (AU25834)), >2000 µg/mL. For the same compound, the “MIC Rep 1” value with P. aeruginosa strains (strain N0053 (AU30524)) came out at 250 µg/mL; with P. aeruginosa strains (strain N0054 (AU26773)), 125 µg/mL; with P. aeruginosa strains (strain N0055 (AU22725)), 62.5 µg/mL; in the series with P. aeruginosa strains (strain N0056 (AU22505)), 1000 µg/mL; with P. aeruginosa strains (strain N0057 (AU35400)), 65 µg/mL; in the series with P. aeruginosa strains (strain N0058 (AU32543)), 500 µg/mL. Also, the “MIC Rep 1” value worked out at 32.5 µg/mL in the series on P. aeruginosa strains (strain N0059 (AR-BANK #0054)); 125 µg/mL with P. aeruginosa strains (strain N0069 (AR-BANK #0090)); 62.5 µg/mL in the series with P. aeruginosa strains (strain N0070 (AR-BANK #0092)); 125 µg/mL in the series on P. aeruginosa strains (strain N0071 (AR-BANK #0100)); 500 µg/mL in the series with P. aeruginosa strains (strain N0072 (AR-BANK #0105)); 125 µg/mL in the series on P. aeruginosa strains (strain N0079 (AR-BANK #0108)). The figures for the “MIC Rep 1” value in the series on P. aeruginosa strains (strain N0080 (AR-BANK #0110)), in the series with P. aeruginosa strains (strain N0081 (AR-BANK #0111)) and in the series on P. aeruginosa strains (strain N0099 (ATCC 29260)) were 125 µg/mL, 250 µg/mL and 125 µg/mL, respectively.
`CC(C)C[C@H](NC(=O)[C@@H]1CCCN1N(O)N=O)C(=O)NCC(N)=O` [Entry 49]: in series [2] (vs entry 29), the “diazeniumdiolate half-life, fold longer than unsubstituted pyrrolidine analog” value amounted to 140 fold. In addition, the “diazeniumdiolate half-life, fold longer than proline carboxylate analog” value in series [2] (vs entry 30) was “over 200 fold”.
With `C[C@@H]1CCC[C@H](C)N1N(O)N=O` [Entry 22, 2,6 cis-dimethylpiperdine-NONOate], in series [2] (vs entry 19), the “rate of NO release, fold slower than unsubstituted piperidine” value was “over 60 fold”. Moreover, in series [3], the “Max Flux” value is 4933 ppb/mg and the “NO Total” value was determined as 3.7 µmol/mg. In series [3] (physiological condition (pH 7.40, 37° C.), buffer not named, pH 7.4, NO release), the half-life was 1.3 h.
For the compound `N[C@@H](CCN[C@@H](CCN1CC[C@H]1C(=O)O)C(=O)O)C(=O)O` [Nicotianamine], the IC50 in series [4] is 84 nM.
Turning to `O=NN(O)N1C2CCC1c1ccccc12` [Entry 50], the “fold more stable than monocyclic dimethyl-substituted pyrrolidine analog” value in series [2] (vs entry 23) is reported as 8 fold.
As for `O=[N+]([O-])[O-].O=[N+]([O-])[O-].O=[N+]([O-])[O-].[Ga+3]` [Gallium nitrate, gallium nitrate, reference compound], the “MIC Ga(NO3)3 alone” value against P. aeruginosa strain PAK was found to be 65 µg/mL. Also, the “MIC Ga(NO3)3 combo” value in the series on P. aeruginosa strain PAK (in combination with BIOC76) was 15 µg/mL. The “MBEC of Gallium nitrate” value in the series with P. aeruginosa biofilms (setting [5]) is >16 mg/mL. Further, the “effectiveness against P. aeruginosa biofilms” value with P. aeruginosa biofilms (biofilms grown under aerobic conditions) is “is not”.

Broadly, the pKa is the negative logarithm of the acid dissociation constant. Broadly, the half-life is the time needed for the level to fall by half in the phase considered. What is called IC50 is the concentration at which inhibition is half-maximal.
